Results reported in PubChem BioAssay (NCI).
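Following 48 hours of exposure in 96-well plates, responses at five concentrations were used to interpolate endpoints linearly. At the GI50, growth is halved. At the TGI there is no net growth.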

How the values were obtained:
Experiment in all cases: DTP human tumour cell line panel, 48 h
UO-31 renal = test system: UO-31 renal
HS 578T breast = test system: HS 578T breast
SK-MEL-5 melanoma = test system: SK-MEL-5 melanoma
RXF 393 renal = test system: RXF 393 renal
NCI-H23 lung = test system: NCI-H23 lung
EKVX NSCLC = test system: EKVX NSCLC
KM12 colon = test system: KM12 colon
SNB-75 CNS = test system: SNB-75 CNS
U251 CNS = test system: U251 CNS

SMILES | TGI (UO-31 renal) [µM] | TGI (HS 578T breast) [µM] | TGI (SK-MEL-5 melanoma) [µM] | TGI (RXF 393 renal) [µM] | TGI (NCI-H23 lung) [µM] | TGI (EKVX NSCLC) [µM] | TGI (KM12 colon) [µM] | TGI (SNB-75 CNS) [µM] | TGI (U251 CNS) [µM] | GI50 (HS 578T breast) [µM] | GI50 (RXF 393 renal) [µM] | GI50 (KM12 colon) [µM]
S=c1[nH]c(=S)c2cc(Sc3ccc4[nH]c(=S)[nH]c(=S)c4c3)ccc2[nH]1 | 82.4 | 56.1 | > 100 | 53.3 | 51.4 | > 100 | 62.5 | 42.6 | > 100 |  |  | 
OC1COC(n2c3ccc(Br)cc3c3ccc4c5ccccc5[nH]c4c32)C(O)C1O (configuration not stated) | 14.2 | 18.1 | 5.2 | 7.37 | 12 | 17.3 | 3.53 | 14.3 | 32.1 |  |  | 
CC[C@@H](/C=C\CCC1(C[C@H](O)CCC=C(C)C)OCCO1)O[Si](C(C)C)(C(C)C)C(C)C | 34.3 | 80.5 | 37.5 | 33.8 | 61.8 | 60.2 | > 100 | 64.9 | 31.1 |  |  | 
CC(C)CCn1c(=O)c2c(=O)[nH][nH]c2c2ccccc21 | > 100 | > 100 | > 100 |  | > 100 | > 100 | > 100 |  | > 100 |  |  | 
O[C@@H]1C[C@@H]2N[C@@](O)(C[C@@H]2O)[C@H]1O | > 100 | > 100 | > 100 | > 100 | > 100 | > 100 | > 100 | > 100 | > 100 |  |  | 
Cc1cccc(NC(=S)Nc2ccccc2Cl)n1 | > 100 | > 100 | > 100 | 60 |  | 67.8 | 79.4 | 52.7 | > 100 |  |  | 
C=CC[C@H]1[C@H](O[Si](C)(C)C(C)(C)C)C=CC(=O)[C@@H]1CC(=O)N(Cc1ccccc1)Cc1ccccc1 | 41.2 | > 100 | 20.7 | 27.4 | 30.5 | > 100 | > 100 |  | > 100 |  |  | 
COc1cc2c(cc1OC)CC(N=[N+]=[N-])c1cc(OC)c(OC)cc1/C=C\2 (configuration not stated) | > 100 | > 100 | 63.1 |  |  | > 100 | > 100 | > 100 | > 100 |  |  | 
c1ccc(CSc2nc(N3CCOCC3)c3cn[nH]c3n2)cc1 | 38.4 | 39.3 | 30.9 | 32.9 | > 100 | 48 | 38.5 | > 100 | 63.2 |  |  | 
COC(=O)/C=c1/c2ccccc2n2nc3ccccc3c12 | > 100 | > 100 | > 100 | > 100 | > 100 | > 100 | > 100 |  | > 100 |  |  | 
COc1cccc(-c2cc(=O)c3c(C)ccnc3[nH]2)c1 | > 100 | > 100 | 3.71 | > 100 | > 100 | > 100 | 1.49 | 0.0417 | > 100 |  |  | 
CC(C)C1OC(=O)/C=C/C=C/C=C/C=C/C=C/CC(O)CC(O)CC(O)CC(O)CC(O)CC(O)CC(O)CC(O)/C=C/C1C (configuration not stated) | > 100 |  | > 100 | > 100 | > 100 | > 100 | > 100 | > 100 | > 100 |  |  | 
CCN(CC)C(=S)SS(=O)(=O)c1ccc([N+](=O)[O-])cc1 | 47 | > 100 | 29.2 | 32.1 | > 100 | > 100 | 24.5 |  | 36.7 | > 100 | 16 | 11.1
C[C@H](O)C1CC(Cn2nnc3c(N)ncnc32)C1(C)C (some centres not stated) | > 100 | > 100 | > 100 | > 100 |  | > 100 | > 100 | > 100 | > 100 |  |  | 
CNC1=CC(=O)C2=C(C1=O)[C@H]1CC[C@]3(C)C(=O)CC[C@H]3[C@@H]1CC2 | 49.2 |  | 27.6 | 41.1 | 19.9 | 29.9 | 23.6 | 27.8 | > 60.2 |  |  | 
CC(C)=CCC/C(C)=C/CC/C(C)=C/CC/C(C)=C/CC/C(C)=C\CC/C(C)=C/CC/C(C)=C/CC/C(C)=C/Cc1cc(O)ccc1O | 5.71 | 8.93 |  |  | 1.96 | 8.83 | 2.53 | 11.6 | 4.06 |  |  | 
COC(=O)CCC12CCC(O1)c1ccccc12 (configuration not stated) | > 100 |  | > 100 | > 100 | > 100 | > 100 | > 100 | > 100 | > 100 |  |  | 
